Source: US12213860B2, “Method for separating mammalian sperm, artificial insemination method, and in vitro fertilization method” (Hiroshima University, priority 2017, dated 2025)

Assays:
Assay type in all cases: cell-based
bovine sperm [1] = test: Percentages of X-sperm and Y-sperm in floating bovine sperm by real-time PCR
Description: A frozen bovine semen provided by the Oita Prefectural Agriculture, Forestry and Fisheries Research Center was used. The frozen sperm were melted, and washed with an albumin-free HTF medium. The bovine sperm were incubated in a medium prepared by adding albumin and a TLR7 ligand to HTF at 37° C., 5% CO2 for 1 hour. The TLR7 ligand used was R-848 or imiquimod R-837 (hereinafter referred to as R-837). The content of R-848 was 0 μM, 0.003 μM, 0.03 μM, 0.3 μM, or 3 μM. The content of R-837 was 0.003 μM, 0.03 μM, 0.3 μM, 3 μM, 30 μM, or 300 μM. Then, after collecting the floating sperm in the upper layer and extracting DNA, the percentages of X-sperm and Y-sperm were determined by real-time PCR.

mouse sperm [2] = test: Percentages of X-sperm and Y-sperm in floating mouse sperm by real-time PCR; details: 0.3 μM treatment group
Description: Mouse sperm were incubated in a medium prepared by adding albumin and a TLR7 ligand to an embryo culture medium (HTF) at 37° C., 5% CO2 for 1 hour. The TLR7 ligand used was Resiquimod R-848 (hereinafter referred to as R-848). The content of R-848 was 0 μM, 0.003 μM, 0.03 μM, 0.3 μM, 1.5 μM, or 3 μM. The sperm floating in the upper layer were collected, and DNA was extracted. Then, the percentages of X chromosome-bearing sperm (hereinafter referred to as X-sperm) and Y chromosome-bearing sperm (hereinafter referred to as Y-sperm) were determined by real-time PCR (polymerase chain reaction).

mouse sperm [3] = test: Mouse in vitro fertilization with washed floating sperm; XX/XY chromosomes of embryos; details: floating sperm from 0.3 μM treatment group
Description: The floating sperm in the non-treatment group and 0.3 μM treatment group were washed, and then subjected to in vitro fertilization. The percentage of in vitro fertilization embryo bearing XX chromosomes or XY chromosomes was determined.

bovine sperm [4] = test: Bovine in vitro fertilization with upper layer sperm; fertilization, blastocyst rate and sexing by real-time PCR; details: bovine IVF, upper layer sperm from 0.03 μM R-848 treatment group
Description: Bovine in vitro fertilization was performed using the sperm in the upper layer rich in Y-sperm from the 0.03 μM R-848 treatment group. […] Next, sexing of the blastocyst embryos was performed by real-time PCR.

pig sperm = test: Percentages of X-sperm and Y-sperm in floating pig sperm by real-time PCR; details: R-848 0.3 μM, 2 hours
Description: Pig sperm were incubated in a medium prepared by adding cysteine, glycine, and a TLR7 ligand to the Modena solution at 37° C., 5% CO2, 5% O2 for 2 hours. The TLR7 ligand used was R-848. The content of R-848 was 0 μM or 0.3 μM. After collecting the floating sperm in the upper layer and extracting DNA, the percentages of X-sperm and Y-sperm were determined by real-time PCR.

mouse sperm [5] = test: Separation of mouse sperm by hypergravity load (centrifugation) after TLR7 ligand incubation; X-/Y-sperm percentages in upper and lower layer; details: R-848 0.3 μM; for percentage of X-sperm in the lower layer of the medium: 30% of the lower layer; for percentage of Y-sperm in the upper layer of the medium: 30% of the upper layer
Description: Mouse sperm were incubated in a medium (500 μL) prepared by adding albumin and a TLR7 ligand to an embryo culture medium (HTF) at 37° C., 5% CO2 for 1 hour. The TLR7 ligand used was Resiquimod R-848 (hereinafter referred to as R-848). The content of R-848 was 0.3 μM. After 30 minutes, the media were centrifuged using a centrifuge (product name: Tabletop Micro Refrigerated Centrifuge Model 3520, produced by KUBOTA Corporation Co., Ltd.) at 37° C. for 30 minutes. The centrifugation was at a centrifugal force of 50×g, 100×g, or 500×g. For comparison, a system without centrifugation (0×g) was also prepared. After centrifugation, 150 μL of the upper layer (30% of the upper layer) of each of the media was collected, and the percentages of X-sperm and Y-sperm in each of the media were determined in the same manner as described above. In addition, 150 μL of the lower layer (30% of the lower layer) of each of the media was collected, and the percentages of X-sperm and Y-sperm in each of the media were determined in the same manner as described above.

mouse sperm [6] = test: Mouse in vitro fertilization with upper and lower layer sperm separated at 50×g; 2-cell, blastocyst embryo, XX/XY chromosomes; details: for 2-cell (%), (number of 2-cell/number of eggs)×100 / Blastocyst embryo (%), (number of blastocyst embryos/number of 2-cell)×100 / Blastocyst embryo (number) / XX chromosomes (%) of blastocyst embryos / XX chromosomes (number) of blastocyst embryos / XY chromosomes (%) of blastocyst embryos / XY chromosomes (number) of blastocyst embryos / 2-cell (number), observed cleavages in 24 hours: R-848 0.3 μM, 50×g
Description: Then, the percentages of blastocyst embryos bearing XX chromosomes or XY chromosomes were determined. In addition, a sperm population obtained by incubating in the same medium as described above at 37° C. for 60 minutes without addition of the TLR7 ligand and without centrifugation (non-treatment group) was subjected to in vitro fertilization in the same manner as described above to form a blastocyst embryo. Then, the percentages of blastocyst embryos bearing XX chromosomes or XY chromosomes were determined. In the column “2-cell” in Table 3, “number” represents number of observed cleavages in 24 hours, while “%” represents “(number of 2-cell/number of eggs)×100.” In the column “blastocyst embryo,” “number” represents number of formed blastocyst embryos, while “%” represents “(number of blastocyst embryos/number of 2-cell)×100.”

[7] = centrifugation at 100×g or more

SMILES: CC(C)Cn1cnc2c(N)nc3ccccc3c21 [R-837, imiquimod]
- percentage of Y-sperm in floating sperm (bovine sperm [1]; R-837 0.03 to 30 μM treatment groups): ≥ 70%

SMILES: CCOCc1nc2c(N)nc3ccccc3c2n1CC(C)(C)O [R-848, resiquimod]
- percentage of Y-sperm in floating sperm (mouse sperm [2]): ≥ 80%
- XX chromosomes (%) of in vitro fertilization embryos (mouse sperm [3]): 13%
- XX chromosomes (Number) of in vitro fertilization embryos (mouse sperm [3]; 98 embryos tested): 13
- XY chromosomes (Number) of in vitro fertilization embryos (mouse sperm [3]; 98 embryos tested): 85
- percentage of Y-sperm in floating sperm (bovine sperm [1]; R-848 0.03 to 0.3 μM treatment groups): ≥ 90%
- blastocyst embryo transfer rate (bovine sperm [4]): 64.3%
- fertilization rate (bovine sperm [4]): 71.7%
- male embryos (sexing of blastocyst embryos by real-time PCR) (bovine sperm [4]): 87.8%
- percentage of Y-sperm in floating sperm (pig sperm): ≥ 90%
- percentage of X-sperm in the lower layer of the medium (mouse sperm [5]; 0×g (without centrifugation)): exceeding 60%
- percentage of Y-sperm in the upper layer of the medium (mouse sperm [5]; 0×g (without centrifugation)): exceeding 80%
- percentage of X-sperm in the lower layer of the medium (mouse sperm [5]; [7]): below 50%
- percentage of Y-sperm in the upper layer of the medium (mouse sperm [5]; [7]): about 60%
- effect on the fertilization function of the sperm (mouse sperm [6]; centrifugation on sperm incubated in medium supplemented with TLR7 ligand (R-848 0.3 μM, 50×g) vs non-treatment group): no effect
- 2-cell (%), (number of 2-cell/number of eggs)×100 (mouse sperm [6]; lower layer group): 70%
- Blastocyst embryo (%), (number of blastocyst embryos/number of 2-cell)×100 (mouse sperm [6]; lower layer group): 70%
- Blastocyst embryo (number) (mouse sperm [6]; lower layer group): 48
- XX chromosomes (%) of blastocyst embryos (mouse sperm [6]; lower layer group): 81%
- XX chromosomes (number) of blastocyst embryos (mouse sperm [6]; lower layer group): 39
- XY chromosomes (%) of blastocyst embryos (mouse sperm [6]; lower layer group): 19%
- XY chromosomes (number) of blastocyst embryos (mouse sperm [6]; lower layer group): 9
- 2-cell (number), observed cleavages in 24 hours (mouse sperm [6]; lower layer group, 99 eggs): 69
- 2-cell (%), (number of 2-cell/number of eggs)×100 (mouse sperm [6]; upper layer group): 79%
- Blastocyst embryo (%), (number of blastocyst embryos/number of 2-cell)×100 (mouse sperm [6]; upper layer group): 73%
- Blastocyst embryo (number) (mouse sperm [6]; upper layer group): 59
- XX chromosomes (%) of blastocyst embryos (mouse sperm [6]; upper layer group): 10%
- XX chromosomes (number) of blastocyst embryos (mouse sperm [6]; upper layer group): 6
- XY chromosomes (%) of blastocyst embryos (mouse sperm [6]; upper layer group): 90%
- XY chromosomes (number) of blastocyst embryos (mouse sperm [6]; upper layer group): 53
- 2-cell (number), observed cleavages in 24 hours (mouse sperm [6]; upper layer group, 103 eggs): 81
